These are literature values, as cited in patent US20080269347A1, “EPINEPHRINE FORMULATIONS” (Azopharma, Inc., priority 2006, published 2008).

Counter-ions that a name gives are not always drawn. Like-named read-outs stand apart in the source and are kept apart here.

As to `CNC[C@H](O)c1ccc(O)c(O)c1` [Epinephrine hydrochloride], the “pH at which unstable” value (in dextrose (5% in water)) was “above 5.5”. Also, for the setting “intravenous admixture, pH raised above 5.5 to about 6”, the “stability when mixed with lidocaine hydrochloride” value was “begin to deteriorate within several hours”. Besides, the decomposition is recorded as 5% (pH 2.5, in 200 days at 30° C.) and 10% (pH 4.5, in 200 days at 30° C.).
